# Test results published in PMC6522510 (Nature Communications, 2019).
# Where a name gives a salt, the structure may show the parent alone. Read-outs that look alike come from different tables or passages of the source.
# Key:
# Parameters in all cases: species or system AML cell lines (8); Primary HTS, single concentration about 10 uM, Cell Titer Glo viability; log10 luminescence, per cent inhibition relative to cycloheximide control
# Details in all cases: 72 h, relative to cycloheximide control, log10 luminescence, inhibitor
# CHRF288-11 = test system: CHRF288-11
# CMK = test system: CMK
# CMS = test system: CMS
# M07e = test system: M07e
# ML-2 = test system: ML-2
# MOLM-13 = test system: MOLM-13
# MV4-11 = test system: MV4-11
# U937 = test system: U937
SMILES,CHRF288-11 %inh (CHRF288-11) [%],CMK %inh (CMK) [%],CMS %inh (CMS) [%],M07e %inh (M07e) [%],ML-2 %inh (ML-2) [%],MOLM-13 %inh (MOLM-13) [%],MV4-11 %inh (MV4-11) [%],U937 %inh (U937) [%],"CHRF288-11 %inh (CHRF288-11; CHRF288-11 %inh, 10 µM) [%]","CMK %inh (CMK; CMK %inh, 10 µM) [%]","CMS %inh (CMS; CMS %inh, 10 µM) [%]","M07e %inh (M07e; M07e %inh, 10 µM) [%]","ML-2 %inh (ML-2; ML-2 %inh, 10 µM) [%]","MOLM-13 %inh (MOLM-13; MOLM-13 %inh, 10 µM) [%]","MV4-11 %inh (MV4-11; MV4-11 %inh, 10 µM) [%]","U937 %inh (U937; U937 %inh, 10 µM) [%]"
"Cc1ccc2cc3c(ccc4ccccc43)c3c2c1CC3 [SJ000285253-3, 3-METHYLCHOLANTHRENE]",5.022,1.143,3.804,0.9432,4.978,2.389,4.129,0.01725,,,,,,,,
"O=C(O[C@H]1C[C@H]2CC[C@@H](C1)[N+]21CCCC1)C(O)(c1ccccc1)c1ccccc1 [SJ000556733-2, TROSPIUM CHLORIDE]",,,,,,,,,0.2164,-0.8375,-2.193,4.258,4.125,0.236,1.274,-0.2464
CCCCC(=O)N(Cc1ccc(-c2ccccc2-c2nnn[nH]2)cc1)[C@H](C(=O)O)C(C)C [SJ000286083-4],,,,,,,,,3.369,-2.819,-1.191,-1.607,-0.2697,-2.877,-5.399,-0.1303
CO[C@H]1O[C@@H]2O[C@@]3(C)CC[C@H]4[C@H](C)CC[C@@H]([C@H]1C)[C@@]24OO3 [SJ000519015-1],-0.3434,0.2838,7.594,0.2631,5.533,2.58,9.901,20.8,,,,,,,,
CS(=O)(=O)N1CCC(n2c(=O)c(Oc3ccc(F)cc3F)cc3cnc(NC4CCOCC4)nc32)CC1 [SJ000580975-1],-0.8918,5.472,-1.205,0.9741,-0.9846,0.4331,2.449,0.9443,,,,,,,,
"[O-][S+]1CCN(Cc2ccc(-c3ccc4ncnc(Nc5ccc(OCc6ccccc6)c(F)c5)c4c3)o2)CC1 [SJ000573188-1, U14859/145/2]",1.525,-1.588,-1.026,-1.871,-0.4978,2.781,1.608,-0.5877,,,,,,,,
COc1cc[nH]c1/C=C1\C(=O)Nc2ccccc21 [SJ000581028-1],5.171,2.429,-2.846,0.1646,2.572,93.27,72.48,-1.475,,,,,,,,
CN1CCN(CCc2cccc(C(=O)c3cnn(-c4ccc(F)cc4)c3N)c2)CC1 [SJ000581170-1],-2.499,6.346,1.769,1.993,2.973,4.249,3.349,7.701,,,,,,,,
Cc1c(C2=C(c3cn(C)c4ccccc34)C(=O)NC2=O)c2ccccc2n1C [SJ000580966-1],4.622,42.24,-2.63,4.858,15.84,2.992,-0.1129,14.47,,,,,,,,
"CC1=C(C(=O)Nc2cc(Cl)c3[nH]ncc3c2)C(c2ccc(C(F)(F)F)cc2)CC(=O)N1 (stereo not drawn) [SJ000573181-1, SD204573-088A4]",20.3,54.4,8.733,13.65,13.01,4.804,31.1,8.409,,,,,,,,
COc1ccccc1C(=O)c1cnc(NC2CCN(S(C)(=O)=O)CC2)nc1N [SJ000581142-1],2.52,37.79,7.4,6.858,3.568,12.27,2.743,8.409,,,,,,,,
"CN(CCOc1ccc(NS(C)(=O)=O)cc1)CCc1ccc(NS(C)(=O)=O)cc1 [SJ000555707-1, DOFETILIDE]",-0.9409,10.12,,3.914,3.818,10.35,4.51,5.896,,,,,,,,
"Cc1cnc(C(=O)NCCc2ccc(S(=O)(=O)NC(=O)NC3CCCCC3)cc2)cn1 [SJ000287188-5, GLIPIZIDE]",-3.512,3.258,1.05,3.86,,17.27,-0.3606,0.1954,,,,,,,,
"Cc1cc(NS(=O)(=O)c2ccc(N)cc2)no1 [SJ000285603-4, SULFAMETHOXAZOLE]",6.539,-0.9998,-0.6486,0.538,,-2.87,0.1304,-2.098,,,,,,,,
"C[N+]1(C)CCC(OC(=O)C(O)(c2ccccc2)C2CCCC2)C1 (stereo not drawn) [SJ000287387-2, GLYCOPYRROLATE]",7.948,-4.149,-3.738,3.68,,6.707,0.8412,2.372,,,,,,,,
"C[C@H]1O[C@@H](O[C@H]2[C@@H](O)C[C@H](O[C@H]3[C@@H](O)C[C@H](O[C@H]4CC[C@@]5(C)[C@H](CC[C@@H]6[C@@H]5C[C@@H](O)[C@]5(C)[C@@H](C7=CC(=O)OC7)CC[C@]65O)C4)O[C@@H]3C)O[C@@H]2C)C[C@H](O)[C@@H]1O [SJ000285739-7, DIGOXIN]",,,,,,,,,112.6,,94.04,,58.17,85.14,73.33,-15.97
"CC(=O)N(O)CCCCCNC(=O)CCC(=O)N(O)CCCCCNC(=O)CCC(=O)N(O)CCCCCN [SJ000285725-4, DEFEROXAMINE MESYLATE]",,16.85,,,,,,,11.08,,42.04,6.608,7.19,17.22,2.029,
